The source of these data is patent publication US12071441B2, “10-(di(phenyl)methyl)-4-hydroxy-8,9,9A,10-tetrahydro-7H-pyrrolo[1′,2′:4,5]pyrazino[1,2-b]pyridazine-3,5-dione derivatives and related compounds as inhibitors of the orthomyxovirus replication for treating influenza” (Novartis AG, priority 2018, dated 2024).

pEC50: −log10 of the molar value.

Experiment in all cases: microbe, parasite or virus in culture
Format in all cases: cell-based

The subject of experiment [1] is influenza A virus minigenome (PB2, PB1, PA, NP; luciferase reporter) in 293T cells, RNP_Hubei. The following applies: HEK-293T, 48 h.
Experiment [2] concerns influenza A virus minigenome (PB2, PB1, PA, NP; luciferase reporter) in 293T cells, RNP_CAL. The following applies: HEK-293T, 48 h, read-out: RNP_CAL_EC50.
For experiment [3], the system named is influenza A virus minigenome (PB2, PB1, PA, NP; luciferase reporter) in 293T cells, RNP_Alaska. The following applies: HEK-293T, 48 h.

For `CCC(=O)Oc1c2n(ncc1=O)[C@@H]([C@H](c1ccccc1)c1cccc(F)c1F)[C@H]1CCCN1C2=O` [Example 59, (9aR,10S)-10-((R)-(2,3-difluorophenyl)(phenyl)methyl)-3,5-dioxo-3,5,8,9,9a,10-hexahydro-7H-pyrrolo[1′,2′:4,5]pyrazino[1,2-b]pyridazin-4-yl propionate], the pEC50 in experiment [1], in experiment [2] and in experiment [3] was over 7.00 throughout.
For the compound `O=C(Oc1c2n(ncc1=O)[C@@H]([C@H](c1ccccc1)c1cccc(F)c1F)[C@H]1CCCN1C2=O)N1CCCCC1` [Example 48, (9aR,10S)-10-((R)-(2,3-difluorophenyl)(phenyl)methyl)-3,5-dioxo-3,5,8,9,9a,10-hexahydro-7H-pyrrolo[1′,2′:4,5]pyrazino[1,2-b]pyridazin-4-yl piperidine-1-carboxylate], the pEC50 in experiment [1], in experiment [2] and in experiment [3] was over 7.00 in each case.
`COCCOC(=O)OCOc1c2n(ncc1=O)[C@@H]([C@H](c1ccc(F)cc1)c1cccc(F)c1F)[C@H]1CCCN1C2=O` [Example 86, (((9aR,10S)-10-((R)-(2,3-difluorophenyl)(4-fluorophenyl)methyl)-3,5-dioxo-3,5,8,9,9a,10-hexahydro-7H-pyrrolo[1′,2′:4,5]pyrazino[1,2-b]pyridazin-4-yl)oxy)methyl (2-methoxyethyl) carbonate]: the pEC50 in experiment [1], in experiment [2] and in experiment [3] was over 7.00 throughout.
As to `COC(=O)OCOc1c2n(ncc1=O)[C@@H]([C@H](c1ccc(F)cc1)c1cccc(F)c1F)[C@H]1CCCN1C2=O` [Example 82, (((9aR,10S)-10-((R)-(2,3-difluorophenyl)(4-fluorophenyl)methyl)-3,5-dioxo-3,5,8,9,9a,10-hexahydro-7H-pyrrolo[1′,2′:4,5]pyrazino[1,2-b]pyridazin-4-yl)oxy)methyl methyl carbonate], the pEC50 in experiment [1], in experiment [2] and in experiment [3] was over 7.00 throughout.
As for `CN1CCN(C(=O)Oc2c3n(ncc2=O)[C@@H]([C@H](c2ccccc2)c2cccc(F)c2F)[C@H]2CCCN2C3=O)CC1` [Example 44, (9aR,10S)-10-((R)-(2,3-difluorophenyl)(phenyl)methyl)-3,5-dioxo-3,5,8,9,9a,10-hexahydro-7H-pyrrolo[1′,2′:4,5]pyrazino[1,2-b]pyridazin-4-yl 4-methylpiperazine-1-carboxylate], the pEC50 is over 7.00 in experiment [1], 6.00 to 7.00 in experiment [2] and 6.00 to 7.00 in experiment [3].
As for `CCOC(=O)OC(C)Oc1c2n(ncc1=O)[C@@H]([C@H](c1ccccc1)c1cccc(F)c1F)[C@H]1CCCN1C2=O` (stereo partly drawn) [Example 56, 1-(((9aR,10S)-10-((R)-(2,3-difluorophenyl)(phenyl)methyl)-3,5-dioxo-3,5,8,9,9a,10-hexahydro-7H-pyrrolo[1′,2′:4,5]pyrazino[1,2-b]pyridazin-4-yl)oxy)ethyl ethyl carbonate], the pEC50 in experiment [1] was over 7.00; in experiment [2], 6.00 to 7.00; in experiment [3] it was 6.00 to 7.00.
On to `CC(=O)Oc1c2n(ncc1=O)[C@@H]([C@H](c1ccc(F)cc1)c1cccc(F)c1F)[C@H]1CCCN1C2=O` [Example 83, (9aR,10S)-10-((R)-(2,3-difluorophenyl)(4-fluorophenyl)methyl)-3,5-dioxo-3,5,8,9,9a,10-hexahydro-7H-pyrrolo[1′,2′:4,5]pyrazino[1,2-b]pyridazin-4-yl acetate], for which the pEC50 in experiment [1], in experiment [2] and in experiment [3] was over 7.00 each time.
In the case of `CC(C)CC(=O)Oc1c2n(ncc1=O)[C@@H]([C@H](c1cccc(F)c1)c1cccc(F)c1F)[C@H]1CCCN1C2=O` [Example 110, (9aR,10S)-10-((R)-(2,3-difluorophenyl)(3-fluorophenyl)methyl)-3,5-dioxo-3,5,8,9,9a,10-hexahydro-7H-pyrrolo[1′,2′:4,5]pyrazino[1,2-b]pyridazin-4-yl 3-methylbutanoate], the pEC50 in experiment [1], in experiment [2] and in experiment [3] was over 7.00 each time.
